Reference: ChEMBL document CHEMBL3259797, “Radiosyntheses and in vivo evaluation of carbon-11 PET tracers for PDE10A in the brain of rodent and nonhuman primate” (Bioorg Med Chem, 2014)

Assays:
[1] = test system: Nucleic Acid; experiment: Ratio of drug level in striatum to cerebellum in cynomolgus monkey at 260 to 370 MBq, iv measured at 80 mins post-injection by microPET analysis; assay type: ADME, organism-based, Macaca fascicularis; conditions: in vivo
[2] = test system: Blood; experiment: Biodistribution in Sprague-Dawley rat blood at 14.8 to 18.5 MBq, iv measured at 5 mins post-injection by gamma counting analysis; assay type: ADME, organism-based; conditions: in vivo
[3] = test system: Lung; experiment: Biodistribution in Sprague-Dawley rat lung at 14.8 to 18.5 MBq, iv measured at 5 mins post-injection by gamma counting analysis; assay type: ADME, organism-based; conditions: in vivo
[4] = test system: Kidney; experiment: Biodistribution in Sprague-Dawley rat kidney at 14.8 to 18.5 MBq, iv measured at 5 mins post-injection by gamma counting analysis; assay type: ADME, organism-based; conditions: in vivo
[5] = test system: Rattus norvegicus; experiment: Biodistribution in Sprague-Dawley rat fat at 14.8 to 18.5 MBq, iv measured at 5 mins post-injection by gamma counting analysis; assay type: ADME, organism-based, Adipose tissue; conditions: in vivo
[6] = test system: Heart; experiment: Biodistribution in Sprague-Dawley rat heart at 14.8 to 18.5 MBq, iv measured at 5 mins post-injection by gamma counting analysis; assay type: ADME, organism-based; conditions: in vivo
[7] = test system: Kidney; experiment: Biodistribution in Sprague-Dawley rat kidney at 14.8 to 18.5 MBq, iv measured at 30 mins post-injection by gamma counting analysis; assay type: ADME, organism-based; conditions: in vivo, 0.5 h
[8] = test system: Muscle tissue; experiment: Biodistribution in Sprague-Dawley rat muscle at 14.8 to 18.5 MBq, iv measured at 30 mins post-injection by gamma counting analysis; assay type: ADME, organism-based; conditions: in vivo, 0.5 h
[9] = test system: Rattus norvegicus; experiment: Biodistribution in Sprague-Dawley rat fat at 14.8 to 18.5 MBq, iv measured at 30 mins post-injection by gamma counting analysis; assay type: ADME, organism-based, Adipose tissue; conditions: in vivo, 0.5 h
[10] = test system: Cerebellum; experiment: Biodistribution in Sprague-Dawley rat cerebellum at 14.8 to 18.5 MBq, iv measured at 30 mins post-injection by gamma counting analysis; assay type: ADME, organism-based; conditions: in vivo, 0.5 h
[11] = test system: Muscle tissue; experiment: Biodistribution in Sprague-Dawley rat muscle at 14.8 to 18.5 MBq, iv measured at 60 mins post-injection by gamma counting analysis; assay type: ADME, organism-based; conditions: in vivo, 1 h
[12] = test system: Lung; experiment: Biodistribution in Sprague-Dawley rat lung at 14.8 to 18.5 MBq, iv treated with MP-10 for 5 mins prior to compound administration measured at 30 mins post-injection by gamma counting analysis; assay type: ADME, organism-based; conditions: in vivo, 0.5 h
[13] = test system: Kidney; experiment: Biodistribution in Sprague-Dawley rat kidney at 14.8 to 18.5 MBq, iv treated with MP-10 for 5 mins prior to compound administration measured at 30 mins post-injection by gamma counting analysis; assay type: ADME, organism-based; conditions: in vivo, 0.5 h
[14] = test system: Brain; experiment: Biodistribution in cynomolgus monkey middle brain at 260 to 370 MBq, iv measured at 20 to 100 mins post-injection by microPET analysis; assay type: ADME, organism-based, Macaca fascicularis; conditions: in vivo
[15] = test system: Occipital cortex; experiment: Biodistribution in cynomolgus monkey occipital cortex at 260 to 370 MBq, iv measured at 20 to 100 mins post-injection by microPET analysis; assay type: ADME, organism-based, Macaca fascicularis; conditions: in vivo
[16] = Biodistribution in cynomolgus monkey striatum at 260 to 370 MBq, iv measured at 30 mins post-injection by microPET analysis; assay type: ADME, organism-based, Macaca fascicularis; conditions: in vivo, 0.5 h
[17] = test system: Nucleic Acid; experiment: Ratio of drug level in striatum to cerebellum in cynomolgus monkey at 260 to 370 MBq, iv measured at 30 mins post-injection by microPET analysis; assay type: ADME, organism-based, Macaca fascicularis; conditions: in vivo, 0.5 h
[18] = test system: Plasma; experiment: Metabolic stability in iv dosed cynomolgus monkey plasma assessed as compound remaining measured at 5 to 60 mins by HPLC analysis; assay type: ADME, organism-based, Macaca fascicularis; conditions: in vivo
[19] = test system: Plasma; experiment: Metabolic stability in iv dosed cynomolgus monkey plasma supernatant under deproteinated condition assessed as compound remaining measured at 5 to 60 mins by HPLC analysis; assay type: ADME, organism-based, Macaca fascicularis; conditions: in vivo
[20] = Drug metabolism in iv dosed cynomolgus monkey plasma assessed as compound remaining measured at 2 mins post-injection by HPLC analysis; assay type: ADME, organism-based, Macaca fascicularis; conditions: read-out: Stability
[21] = Drug metabolism in iv dosed cynomolgus monkey plasma assessed as compound remaining measured at 15 mins post-injection by HPLC analysis; assay type: ADME, organism-based, Macaca fascicularis; conditions: read-out: Stability
[22] = test system: Plasma; experiment: Drug recovery in iv dosed cynomolgus monkey plasma measured at 30 mins post-injection by HPLC analysis; assay type: ADME, organism-based, Macaca fascicularis; conditions: in vivo, 0.5 h
[23] = Drug recovery in iv dosed cynomolgus monkey arterial blood measured at 60 mins post-injection by HPLC analysis; assay type: ADME, organism-based, Macaca fascicularis; conditions: in vivo, 1 h
[24] = Drug recovery in iv dosed cynomolgus monkey arterial blood assessed as radiometabolite level measured at 60 mins post-injection by HPLC analysis; assay type: ADME, organism-based, Macaca fascicularis; conditions: in vivo, 1 h
[25] = Drug metabolism in iv dosed cynomolgus monkey plasma measured at 60 mins post-injection by HPLC analysis; assay type: ADME, organism-based, Macaca fascicularis; conditions: read-out: Drug metabolism
[26] = Biodistribution in cynomolgus monkey striatum at 260 to 370 MBq, iv measured at 25 mins post-injection by microPET analysis; assay type: ADME, organism-based, Macaca fascicularis; conditions: in vivo
[27] = test system: Nucleic Acid; experiment: Ratio of drug level in striatum to cerebellum in cynomolgus monkey at 260 to 370 MBq, iv measured at 25 mins post-injection by microPET analysis; assay type: ADME, organism-based, Macaca fascicularis; conditions: in vivo
[28] = test system: Plasma; experiment: Drug metabolism in iv dosed cynomolgus monkey plasma assessed as compound remaining by HPLC analysis; assay type: ADME, organism-based, Macaca fascicularis; conditions: in vivo
[29] = Drug metabolism in iv dosed cynomolgus monkey plasma assessed as compound remaining measured at 30 mins post-injection by HPLC analysis; assay type: ADME, organism-based, Macaca fascicularis; conditions: read-out: Stability
[30] = Drug metabolism in iv dosed cynomolgus monkey plasma assessed as compound remaining measured at 60 mins post-injection by HPLC analysis; assay type: ADME, organism-based, Macaca fascicularis; conditions: read-out: Stability

SMILES | Drug uptake [2] | Drug uptake [3] | Drug uptake [4] | Drug uptake [5] | Drug uptake [6] | Drug uptake [7] | Drug uptake [8] | Drug uptake [9] | Drug uptake [10] | Drug uptake [11] | Drug uptake [12] | Drug uptake [13] | Drug uptake [14] | Drug uptake [15] | Stability [18] | Stability [19] | remaining at 0.25 h [21] | other results
Cn1cc(-c2ccncc2)c(-c2ccc(OCc3nc4ccccc4cc3O[11CH3])cc2)n1 | 0.679 % ID/g | 1.602 % ID/g | 4.354 % ID/g | 0.935 % ID/g | 0.733 % ID/g | 1.647 % ID/g | 0.244 % ID/g | 0.851 % ID/g | 0.097 % ID/g | 0.142 % ID/g | 0.404 % ID/g | 1.523 % ID/g | Active | Active | 65% | 88% | 87% | Ratio [1]: 4.5; SUV [16]: 1.8; Ratio [17]: 3.5; remaining at 2 min [20]: 97%; Drug recovery [22]: 82%; Drug recovery [23]: 65%; Drug recovery [24]: 30%
Cn1cc(-c2ccncc2)c(-c2ccc(OCc3cc(O[11CH3])c4ccccc4n3)cc2)n1 | 0.268 % ID/g | 0.89 % ID/g | 2.34 % ID/g | 0.242 % ID/g | 0.464 % ID/g | 1.294 % ID/g | 0.133 % ID/g | 0.371 % ID/g | 0.066 % ID/g | 0.084 % ID/g | 0.362 % ID/g | 1.072 % ID/g | Active | Active | 65% | 88% | 75% | metabolised at 1 h [25]: 42%; Drug uptake [26]: Active; Ratio [27]: 2.7; Stability [28]: 85%; remaining at 0.5 h [29]: 60%; remaining at 1 h [30]: 42%
